Assay results published in patent publication US20150104868A1, “Methods of Maintaining and Improving Biological Cell Function and Activity” (GARGILL INCORPORATED, priority 2012, published 2015).

Columns and labels:
[1] = tested on: Geotrichum candidum cells (GCC); assay: Function and activity of freeze-dried Geotrichum candidum culture; type: cell-based
Excerpt: A starter culture with Geotrichum candidum cells (GCC) was produced by ID growing GCC in a medium containing 10% glucose and other nutrients. […] The function and activity of GCC was reduced during such preservation process. […] Function and activity was expressed by measuring how many doses GCC culture with a standardized amount of activity and function can be obtained per liter fermentation broth.

[2] = in vivo, po; cited from earlier work
HUVEC cells [3] = assay: Lipid peroxidation: malondialdehyde (MDA) in HUVEC; type: cell-based, human; conditions: 30 mM glucose, with or without 5 mM ERT
Description: The prepared cells were seeded in 6 well plates and T75 flasks and grown until 80% confluence. The medium was removed, and the cells were washed with Hank's Balanced Salt Solution (HBSS). […] The vehicle solution is the solvent for the test compounds, in this case being the medium without supplements. […] The cells described above were also incubated for 24 hours with a 7 mM, normal glucose (NG) solution or in some instances, with a 15 mM, intermediary glucose (IG) solution. See, for example, FIG. 6. Subsequently, the cells were incubated for 24 hours. The same protocol was used for incubation with Nε-(carboxymethyl)lysine (CML, final concentration 1 micromolar) and 1,3-morpholino sidnonimine (SIN-1, final concentration 0.5 mM).

HUVEC cells [4] = assay: Eicosanoids in HUVEC pellets and supernatants; type: cell-based, human
Description: Another parameter evaluated in the targeted assays included the study of 23 eicosanoids in a comparison of HG versus HGERT conditions.
In studying the supernatants, 14,15-dihydroxy-5Z,8Z,11Z-eicosatrienoate (14,15-DiHETrE), produced from arachidonic acid via Cyp 2C and 2J to form epoxyeicosatrienoic acids (EETs), then converted to DiHETrE via sEH, decreased from 0.0085 to 0.0040 nM (p<0.05). This decrease in 14,15-DiHETrE is consistent with high glucose suppression of sEH, and should result in increased EETs, which would produce vasodilation. EETs were not, however, observed to be increased.

HUVEC cells [5] = conditions: ERT by itself, non-diabetic conditions; cited from earlier work
[6] = tested on: Superoxide dismutases (total SOD, SOD1, SOD2); assay: SOD activity, expression and protein levels in HUVEC; type: cell-based, human
Excerpt: One of the reactive oxygen species of which the production is likely to be increased during hyperglycemia is the superoxide radical (O2•—), potentially due to an over-activation of the mitochondrial respiratory chain. Superoxide dismutases (SODs) constitute a family of enzymes that effectively reduces the amount of superoxide radicals by turning them into hydrogen peroxide and oxygen. SODs occur in the cytoplasma (copper, zinc SOD or SOD1) and in the mitochondrion (manganese SOD or SOD2). A third form (SOD3 or EC-SOD) is found extracellularly. […] Accordingly, the expression protein and activity levels of SOD2 (which is the inducible SOD) SOD1 and total SOD activity were studied.
The total SOD activity (U/mg protein), SOD1 activity, SOD2 activity, SOD2 expression (by RT-PCR), and SOD2 protein (by Western blot) were not affected by HGERT vs HG […].

Human 1.1E7 beta cells = assay: 1.1E7 beta cell viability (trypan blue, Countess); type: cell-based; conditions: 10, 30, 45 mM glucose, with or without 5 mM ERT
Description: Cell culture: Human 1.1E7 beta cells were cultured in RPMI 1640 medium containing 10% fetal calf serum, 2 mM L-Glutamine and 1% penicillin/streptomycin. Cells were maintained at 37° C. in a 5% CO2 atmosphere.
Viability: Cells were seeded in a 24 well plate. After overnight attaching, the medium was removed and cells were washed with HBSS. […] After 1 hour incubation a vehicle or glucose solution was added to a final concentration of 10, 30 or 45 mM in the wells. Subsequently, cells were incubated for 24 hours, 48 hours, 6 days, and 7 days. After incubation, all cell material including medium and HBSS was collected and centrifuged (5 minutes, 500×g). Supernatant was removed and cells were resuspended in 100 μl HBSS. Cell suspensions were diluted 1:1 in 0.4% trypan blue dye and loaded in a Countess Chamber. Cells were counted using the Invitrogen Countess® automated cell counter (Life Technologies Europe BV, Bleiswijk, the Netherlands).

HUVEC cells [7] = assay: Oxidative damage: protein carbonyls in HUVEC; type: cell-based, human; conditions: HG 30 mM glucose 24 h, with or without 5 mM ERT/MAN
Description: The prepared cells were seeded in 6 well plates and T75 flasks and grown until 80% confluence. The medium was removed, and the cells were washed with Hank's Balanced Salt Solution (HBSS). […] The vehicle solution is the solvent for the test compounds, in this case being the medium without supplements. […] The cells described above were also incubated for 24 hours with a 7 mM, normal glucose (NG) solution or in some instances, with a 15 mM, intermediary glucose (IG) solution. See, for example, FIG. 6. Subsequently, the cells were incubated for 24 hours. The same protocol was used for incubation with Nε-(carboxymethyl)lysine (CML, final concentration 1 micromolar) and 1,3-morpholino sidnonimine (SIN-1, final concentration 0.5 mM). […] Hyperglycemia is strongly associated with oxidative stress, an imbalance between the formation of reactive oxygen species and the present antioxidants. Excess reactive oxygen species react with critical cellular targets, viz. membrane lipids, proteins and (deoxy)ribonucleic acids. […] Accordingly, one of the targeted assays included studying a comparison of HG to HGERT conditions, where the oxidative damage was evaluated showing that the protein carbonyls decreased from 6.55 nM/mg protein with HG to 3.77 with […]=0.089). Protein carbonyls are end products of reactions between proteins and reactive oxygen species (ROS), formed during oxidative stress. […]

[8] = tested on: Mouse intestine (entero-endocrine) STC-1 cells; conditions: STC-1 cells, 10% w/v, 2 hours at 37° C.
Description: Appropriate blanks, positive controls, and standards were also included.
The lactate dehydrogenase (LDH) leakage from cells was analyzed in the supernatants as a marker for cytotoxic cell death.

**Q.** Which results are given for `OC[C@@H](O)[C@@H](O)CO` [ERT, meso-1,2,3,4-tetrahydroxybutane]?
**A.** Change in GCC cell activity and function (blank set at 100) ([1]; 2% ERT): 120; improvement of GCC activity and function ([1]; 2% ERT): 20%; Doses/ltr fermentation broth ([1]; 2% ERT added before freeze drying): 621 Doses/ltr; Change in GCC cell activity and function (blank set at 100) ([1]; 3% ERT): 126; improvement of GCC activity and function ([1]; 3% ERT): 26%; Doses/ltr fermentation broth ([1]; 3% ERT added before freeze drying): 652 Doses/ltr; Change in GCC cell activity and function (blank set at 100) ([1]; 5% ERT): 107; increase of GCC activity and function ([1]; 5% ERT): 8%; Doses/ltr fermentation broth ([1]; 5% ERT added before freeze drying): 555 Doses/ltr; excretion [2]: excreted unchanged in the urine; metabolism [2]: not metabolized; malondialdehyde (MDA), end product of lipid peroxidation (HUVEC cells [3]): Neither the exposure of the HUVEC cells to 5 mM ERT and 30 mM glucose (HGERT) nor to HG aloneaffected; 14,15-DiHETrE in supernatants (HUVEC cells [4]; HG vs HGERT): 4 pM; TXB2 (HUVEC cells [4]; HG vs HGERT): 1.20; 12-HETE in pellets (HUVEC cells [4]; HGERT vs HG): decreasing 12-HETE levels; viability, oxidative damage, SOD activity, nitric oxide production, adhesion molecule production, transcriptome (HUVEC cells [5]): did not show changes; total SOD activity, SOD1 activity, SOD2 activity, SOD2 expression (RT-PCR), SOD2 protein (Western blot) ([6]; HGERT vs HG): not affected; transcription and protein levels of SOD2 ([6]; HUVEC): did not affect transcription or the protein levels of SOD2; total superoxide dismutase activity ([6]; hyperglycemic conditions, effect not significant): appeared to increase the total superoxide dismutase activity; viability of 1.1E7 cells (Human 1.1E7 beta cells; 6 and 7 days): entirely prevented this decrease in beta cell viability; viability of 1.1E7 cells (Human 1.1E7 beta cells; 24 and 48 hours): did not have any impact on this maintained viability; protein carbonyls (HUVEC cells [7]): 3.77 nM/mg protein; cell death (leakage of lactate dehydrogenase) [8]: cells could tolerate higher concentrations of ERT than glucose and other sugars tested
